The source of these data is US11208412B2 (DAEGU-GYEONGBUK MEDICAL INNOVATION FOUNDATION, priority 2017, dated 2021).

Assay in all cases: Kinase selectivity, DiscoverX scanMAX Kinase assay panel (% control)
Common to all, as to type: binding

Assay [1] concerns the target T1, kinases of the scanMAX Kinase assay panel (Homo sapiens, UniProt O75116).
T1 construct: purchased DiscoverX Co. (contract measurement) scanMAX Kinase assay panel
Particulars: kinase ROCK2; 1 uM in DMSO. Put shortly:
(§1)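 Single-point screen, 1 uM cpd in DMSO. % ctrl = (cpd − pos ctrl)/(neg ctrl − pos ctrl)×100; pos ctrl = 0%, DMSO neg ctrl = 100%. Hit cutoff <35%.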

Assay [2] concerns the target T2, kinases of the scanMAX Kinase assay panel (Homo sapiens, UniProt Q08881).
T2 construct: purchased DiscoverX Co. (contract measurement) scanMAX Kinase assay panel
T2 sequence (Q08881 1-620): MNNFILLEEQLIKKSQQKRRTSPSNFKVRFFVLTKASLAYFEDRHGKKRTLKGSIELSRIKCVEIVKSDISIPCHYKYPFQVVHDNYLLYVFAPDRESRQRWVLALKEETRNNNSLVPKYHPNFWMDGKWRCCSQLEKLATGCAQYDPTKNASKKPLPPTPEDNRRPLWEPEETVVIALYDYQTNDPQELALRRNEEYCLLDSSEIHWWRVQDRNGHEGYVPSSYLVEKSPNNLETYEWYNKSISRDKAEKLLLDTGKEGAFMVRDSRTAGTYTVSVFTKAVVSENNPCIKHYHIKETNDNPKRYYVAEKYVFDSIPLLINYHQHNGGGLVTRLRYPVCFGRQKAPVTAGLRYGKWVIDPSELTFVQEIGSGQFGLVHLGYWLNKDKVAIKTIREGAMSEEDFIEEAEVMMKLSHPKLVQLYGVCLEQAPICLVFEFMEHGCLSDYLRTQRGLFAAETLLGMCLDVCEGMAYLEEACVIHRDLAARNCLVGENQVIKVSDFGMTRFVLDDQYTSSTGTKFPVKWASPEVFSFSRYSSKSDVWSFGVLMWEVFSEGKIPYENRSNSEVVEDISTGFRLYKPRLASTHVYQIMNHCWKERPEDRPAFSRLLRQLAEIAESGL
The settings on record: ITK; 1 uM. Put shortly: as §1

For assay [3], the target named is T3, kinases of the scanMAX Kinase assay panel (Homo sapiens, UniProt P30530).
T3 construct: purchased DiscoverX Co. (contract measurement) scanMAX Kinase assay panel
T3 sequence (P30530 26-894): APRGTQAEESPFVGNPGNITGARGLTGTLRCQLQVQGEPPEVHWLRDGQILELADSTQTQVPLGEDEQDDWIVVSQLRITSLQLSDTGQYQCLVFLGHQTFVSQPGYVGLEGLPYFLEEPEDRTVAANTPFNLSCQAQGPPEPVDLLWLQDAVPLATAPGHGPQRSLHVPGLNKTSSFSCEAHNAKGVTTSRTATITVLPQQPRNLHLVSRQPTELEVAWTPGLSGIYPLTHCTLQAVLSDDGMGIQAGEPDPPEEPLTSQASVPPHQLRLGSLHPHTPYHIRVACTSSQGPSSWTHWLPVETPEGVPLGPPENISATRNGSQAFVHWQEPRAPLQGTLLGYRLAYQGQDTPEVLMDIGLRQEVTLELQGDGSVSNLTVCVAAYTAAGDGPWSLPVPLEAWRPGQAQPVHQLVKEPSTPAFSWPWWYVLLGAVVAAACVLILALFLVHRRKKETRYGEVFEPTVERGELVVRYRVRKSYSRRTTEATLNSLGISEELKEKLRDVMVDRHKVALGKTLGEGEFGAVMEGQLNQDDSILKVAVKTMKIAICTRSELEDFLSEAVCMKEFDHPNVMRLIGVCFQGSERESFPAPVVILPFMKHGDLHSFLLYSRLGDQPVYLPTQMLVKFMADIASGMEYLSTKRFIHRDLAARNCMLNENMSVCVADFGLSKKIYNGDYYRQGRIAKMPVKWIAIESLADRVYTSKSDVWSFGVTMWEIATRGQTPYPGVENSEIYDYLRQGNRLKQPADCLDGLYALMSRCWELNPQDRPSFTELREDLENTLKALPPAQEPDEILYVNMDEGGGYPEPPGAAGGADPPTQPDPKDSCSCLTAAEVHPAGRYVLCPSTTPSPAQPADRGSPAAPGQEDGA
The settings on record: AXL; 1 uM. The method, boiled down:
as §1

Assay [4] concerns the target T4, kinases of the scanMAX Kinase assay panel (Homo sapiens, UniProt P57078).
T4 construct: purchased DiscoverX Co. (contract measurement) scanMAX Kinase assay panel
T4 sequence (P57078 1-832): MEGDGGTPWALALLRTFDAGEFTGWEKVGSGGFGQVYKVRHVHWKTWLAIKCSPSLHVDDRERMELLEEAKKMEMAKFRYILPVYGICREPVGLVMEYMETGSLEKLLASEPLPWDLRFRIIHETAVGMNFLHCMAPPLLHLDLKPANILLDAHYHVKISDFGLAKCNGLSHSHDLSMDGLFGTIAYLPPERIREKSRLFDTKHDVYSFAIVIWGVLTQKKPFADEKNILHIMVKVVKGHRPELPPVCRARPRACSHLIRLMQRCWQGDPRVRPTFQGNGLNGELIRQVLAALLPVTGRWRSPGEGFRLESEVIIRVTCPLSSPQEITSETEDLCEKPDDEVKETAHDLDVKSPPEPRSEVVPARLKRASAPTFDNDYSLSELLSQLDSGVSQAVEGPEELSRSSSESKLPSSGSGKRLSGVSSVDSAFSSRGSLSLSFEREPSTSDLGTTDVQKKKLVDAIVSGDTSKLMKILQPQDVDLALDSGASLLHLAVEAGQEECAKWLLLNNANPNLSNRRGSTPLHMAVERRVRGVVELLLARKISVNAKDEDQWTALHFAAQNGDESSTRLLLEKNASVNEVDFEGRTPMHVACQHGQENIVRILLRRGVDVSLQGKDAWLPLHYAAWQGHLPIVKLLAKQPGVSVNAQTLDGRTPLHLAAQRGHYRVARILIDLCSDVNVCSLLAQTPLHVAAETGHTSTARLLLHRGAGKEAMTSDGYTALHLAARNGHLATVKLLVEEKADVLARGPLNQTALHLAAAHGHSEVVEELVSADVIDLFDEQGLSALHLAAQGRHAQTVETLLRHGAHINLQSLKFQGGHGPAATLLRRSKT
The settings on record: kinase RIPK4; 1 uM in DMSO. The method, boiled down: as §1

Assay [5] deals with T5, kinases of the scanMAX Kinase assay panel (Homo sapiens, UniProt Q8IVW4).
T5 construct: purchased DiscoverX Co. (contract measurement) scanMAX Kinase assay panel
T5 sequence (Q8IVW4 whole entry): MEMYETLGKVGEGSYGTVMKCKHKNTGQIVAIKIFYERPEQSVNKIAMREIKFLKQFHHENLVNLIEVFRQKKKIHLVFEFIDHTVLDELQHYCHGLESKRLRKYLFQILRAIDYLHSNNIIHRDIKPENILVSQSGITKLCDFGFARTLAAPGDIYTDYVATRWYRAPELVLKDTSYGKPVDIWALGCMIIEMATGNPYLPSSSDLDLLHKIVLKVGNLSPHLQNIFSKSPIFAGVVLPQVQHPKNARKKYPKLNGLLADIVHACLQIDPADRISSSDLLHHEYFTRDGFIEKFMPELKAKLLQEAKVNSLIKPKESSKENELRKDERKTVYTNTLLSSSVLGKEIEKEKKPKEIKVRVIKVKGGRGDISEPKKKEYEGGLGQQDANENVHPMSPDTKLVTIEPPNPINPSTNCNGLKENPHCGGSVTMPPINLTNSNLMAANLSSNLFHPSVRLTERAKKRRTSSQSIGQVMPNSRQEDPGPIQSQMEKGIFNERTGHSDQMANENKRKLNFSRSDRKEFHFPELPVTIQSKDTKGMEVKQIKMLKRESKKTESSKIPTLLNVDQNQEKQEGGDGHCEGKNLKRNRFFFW
Particulars: CDKL3; 1 uM. The method, boiled down: as §1

Assay [6] concerns the target T6, kinases of the scanMAX Kinase assay panel (Homo sapiens, UniProt Q13627).
T6 construct: purchased DiscoverX Co. (contract measurement) scanMAX Kinase assay panel
Particulars: DYRK1A; 1 uM. Put shortly:
as §1

T1 sequence (O75116 whole entry): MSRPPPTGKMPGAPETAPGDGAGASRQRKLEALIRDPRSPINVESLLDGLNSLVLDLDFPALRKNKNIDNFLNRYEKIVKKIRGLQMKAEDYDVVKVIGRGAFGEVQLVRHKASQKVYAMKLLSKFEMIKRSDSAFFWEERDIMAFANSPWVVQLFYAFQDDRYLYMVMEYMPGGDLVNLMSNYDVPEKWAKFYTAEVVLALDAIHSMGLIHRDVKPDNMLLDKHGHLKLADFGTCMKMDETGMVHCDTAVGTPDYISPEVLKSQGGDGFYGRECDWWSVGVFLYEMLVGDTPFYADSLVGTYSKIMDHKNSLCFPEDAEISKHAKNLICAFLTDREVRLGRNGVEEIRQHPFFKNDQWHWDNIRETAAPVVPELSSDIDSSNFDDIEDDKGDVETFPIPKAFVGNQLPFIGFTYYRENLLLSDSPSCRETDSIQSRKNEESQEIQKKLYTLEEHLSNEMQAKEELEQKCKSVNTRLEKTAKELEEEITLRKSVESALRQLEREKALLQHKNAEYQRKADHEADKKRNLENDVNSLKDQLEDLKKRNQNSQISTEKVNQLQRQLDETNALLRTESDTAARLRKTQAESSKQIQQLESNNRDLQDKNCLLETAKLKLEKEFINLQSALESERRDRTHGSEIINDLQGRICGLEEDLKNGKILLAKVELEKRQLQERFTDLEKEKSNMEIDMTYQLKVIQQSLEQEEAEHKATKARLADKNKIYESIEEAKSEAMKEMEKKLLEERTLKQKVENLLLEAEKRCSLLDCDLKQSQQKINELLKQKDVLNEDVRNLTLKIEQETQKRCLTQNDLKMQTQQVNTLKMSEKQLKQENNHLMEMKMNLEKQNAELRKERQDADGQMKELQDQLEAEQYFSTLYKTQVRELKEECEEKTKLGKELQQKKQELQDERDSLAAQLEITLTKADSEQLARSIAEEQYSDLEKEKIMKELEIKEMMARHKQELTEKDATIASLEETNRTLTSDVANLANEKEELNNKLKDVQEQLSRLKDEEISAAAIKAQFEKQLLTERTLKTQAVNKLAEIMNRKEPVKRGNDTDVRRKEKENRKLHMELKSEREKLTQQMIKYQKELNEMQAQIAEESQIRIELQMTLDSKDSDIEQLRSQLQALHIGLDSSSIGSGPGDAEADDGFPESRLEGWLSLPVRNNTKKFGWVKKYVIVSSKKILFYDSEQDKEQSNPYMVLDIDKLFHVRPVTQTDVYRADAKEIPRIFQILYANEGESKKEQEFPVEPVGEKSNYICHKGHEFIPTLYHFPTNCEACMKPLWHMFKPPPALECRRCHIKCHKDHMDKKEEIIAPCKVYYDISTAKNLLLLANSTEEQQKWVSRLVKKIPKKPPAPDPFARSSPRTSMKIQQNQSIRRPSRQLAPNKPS

In the case of `CNc1nc(Nc2ccc(C(=O)N3CCOCC3)cc2OC)nc2[nH]cc(C#N)c12` [Example 1, 2-((2-methoxy-4-(morpholine-4-carbonyl)phenyl)amino)-4-(methylamino)-7H-pyrrolo[2,3-d]pyrimidine-5-carbonitrile], the remaining binding at 1 µM in assay [1] was found to be 56%; in assay [2], 99%; in assay [3], 90%; in assay [4], 72%; in assay [5] it was 93%; in assay [6], 4.1%.
Take `CC1(Nc2nc(Nc3cnn([C@H]4CCN(C5COC5)C[C@@H]4F)c3Cl)nc3[nH]cc(C#N)c23)CC1` [Example 52, 2-((5-chloro-1-((3S,4S)-3-fluoro-1-(oxetane-3-yl)piperidine-4-yl)-1H-pyrazole-4-yl)amino)((1-methylcyclopropyl)amino)-7H-pyrrolo[2,3-d]pyrimidine-5-carbonitrile]: the remaining binding at 1 µM came to 23% in assay [1]; 9.7% in assay [2]; 0% in assay [3]; 1.6% in assay [4]; 100% in assay [5]; 0.15% in assay [6].
With `CCNc1nc(Nc2ccc(C(=O)N3CCC(N4CCOCC4)CC3)cc2OC)nc2[nH]cc(C(F)(F)F)c12` [Example 104, (4-((4-(ethylamino)-5-(trifluoromethyl)-7H-pyrrolo[2,3-d]pyrimidine-2-yl)amino)-3-methoxyphenyl)(4-morpholinopiperidine-1-yl)methanone], the remaining binding at 1 µM in assay [1] came out at 100%; in assay [2], 100%; in assay [3], 69%; in assay [4], 0.6%; in assay [5], 100%; in assay [6], 0.05%.
